# Experimental data as given in patent publication US20210323977A1, “PYRROLIDINYL AMIDE COMPOUNDS FOR THE TREATMENT OF AUTOIMMUNE DISEASE” (Hoffmann-La Roche Inc., priority 2018, published 2021).
# Molecular target: T1, human TLR7 (Homo sapiens, UniProt Q9NYK1)
# T1 sequence (Q9NYK1 27-1049): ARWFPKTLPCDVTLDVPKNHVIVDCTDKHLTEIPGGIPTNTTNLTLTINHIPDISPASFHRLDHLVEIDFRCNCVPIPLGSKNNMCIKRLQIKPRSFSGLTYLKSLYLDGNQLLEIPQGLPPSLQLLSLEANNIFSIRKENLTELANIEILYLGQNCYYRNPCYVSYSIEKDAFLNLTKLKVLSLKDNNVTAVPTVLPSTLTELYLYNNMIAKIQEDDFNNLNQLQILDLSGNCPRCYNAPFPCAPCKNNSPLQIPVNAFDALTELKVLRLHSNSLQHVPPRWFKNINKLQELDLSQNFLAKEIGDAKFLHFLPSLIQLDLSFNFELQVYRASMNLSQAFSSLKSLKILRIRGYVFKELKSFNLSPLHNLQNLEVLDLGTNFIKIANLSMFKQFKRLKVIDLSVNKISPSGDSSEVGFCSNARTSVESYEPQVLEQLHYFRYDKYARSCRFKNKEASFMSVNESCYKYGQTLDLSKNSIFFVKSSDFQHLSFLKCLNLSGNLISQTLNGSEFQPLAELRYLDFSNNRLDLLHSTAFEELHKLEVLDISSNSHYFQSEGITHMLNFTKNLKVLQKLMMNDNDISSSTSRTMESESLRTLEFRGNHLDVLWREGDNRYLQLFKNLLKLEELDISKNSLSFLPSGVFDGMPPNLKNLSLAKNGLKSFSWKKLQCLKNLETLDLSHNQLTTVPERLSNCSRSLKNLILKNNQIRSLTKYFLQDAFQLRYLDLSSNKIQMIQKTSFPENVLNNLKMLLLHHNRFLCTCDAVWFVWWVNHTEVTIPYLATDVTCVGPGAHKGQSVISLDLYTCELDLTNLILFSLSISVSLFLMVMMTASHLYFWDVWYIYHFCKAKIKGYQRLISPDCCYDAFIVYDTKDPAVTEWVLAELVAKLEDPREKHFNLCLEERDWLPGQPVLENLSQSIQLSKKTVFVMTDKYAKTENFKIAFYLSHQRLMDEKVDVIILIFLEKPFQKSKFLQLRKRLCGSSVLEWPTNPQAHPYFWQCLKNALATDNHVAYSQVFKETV
# Assay: HEK293-Blue-hTLR-7 cells assay
# Format: cell-based
# Details: HEK293-Blue-hTLR7 cells, SEAP reporter, R848 stimulation, 20 hrs
# Description: HEK293-Blue-hTLR-7 Cells Assay:
# A stable HEK293-Blue-hTLR-7 cell line was purchased from InvivoGen (Cat. #: hkb-htlr7, San Diego, Calif., USA). These cells were originally designed for studying the stimulation of human TLR7 by monitoring the activation of NF-κB. A SEAP (secreted embryonic alkaline phosphatase) reporter gene was placed under the control of the IFN-β minimal promoter fused to five NF-κB and AP-1-binding sites. The SEAP was induced by activating NF-κB and AP-1 via stimulating HEK-Blue hTLR7 cells with TLR7 ligands. Therefore the reporter expression was declined by TLR7 antagonist under the stimulation of a ligand, such as R848 (Resiquimod), for incubation of 20 hrs. The cell culture supernatant SEAP reporter activity was determined using QUANTI-Blue™ kit (Cat. #: rep-qb1, Invivogen, San Diego, Ca, USA) at a wavelength of 640 nm, a detection medium that turns purple or blue in the presence of alkaline phosphatase.
# HEK293-Blue-hTLR7 cells were incubated at a density of 250,000˜450,000 cells/mL in a volume of 170 μL in a 96-well plate in Dulbecco's Modified Eagle's medium (DMEM) containing 4.5 g/L glucose, 50 U/mL penicillin, […], […], 2 mM L-glutamine, 10% (v/v) heat-inactivated fetal bovine serum with addition of 20 sL test compound in a serial dilution in the presence of final DMSO at 1% and 10 μL of 20 uM R848 in above DMEM, perform incubation under 37° C. in a CO2 incubator for 20 hrs. Then 20 μL of the supernatant from each well was incubated with 180 sL Quanti-blue substrate solution at 37° C. for 2 hrs and the absorbance was read at 620-655 nm using a spectrophotometer. The signalling pathway that TLR7 activation leads to downstream NF-κB activation has been widely accepted, and therefore similar reporter assay was modified for evaluating TLR7 antagonist.
row,Structure (SMILES),IC50 [nM]
1,"O=C(NC1CC2COCC(C1)N2)C1CN(c2ccc(C(F)(F)F)c3nccnc23)CC12CC2 (stereo not shown) [Example 6, N-(3-oxa-9-azabicyclo[3.3.1]nonan-7-yl)-5-[8-(trifluoromethyl)quinoxalin-5-yl]-5-azaspiro[2.4]heptane-7-carboxamide]",9
2,"O=C(NC1C2CCCC1CNC2)C1CN(c2ccc(C(F)(F)F)c3nccnc23)CC12CC2 (stereo not shown) [Example 8, N-(3-azabicyclo[3.3.1]nonan-9-yl)-5-[8-(trifluoromethyl)quinoxalin-5-yl]-5-azaspiro[2.4]heptane-7-carboxamide]",10
3,"O=C(NC1CC2CCCC(C1)N2)C1CN(c2ccc(C(F)(F)F)c3nccnc23)CC12CC2 (stereo not shown) [Example 10, N-(9-azabicyclo[3.3.1]nonan-3-yl)-5-[8-(trifluoromethyl)quinoxalin-5-yl]-5-azaspiro[2.4]heptane-7-carboxamide]",12
4,"O=C(NC1C2CCC1CNC2)C1CN(c2ccc(C(F)(F)F)c3nccnc23)CC12CC2 (stereo not shown) [Example 12, N-(3-azabicyclo[3.2.1]octan-8-yl)-5-[8-(trifluoromethyl)quinoxalin-5-yl]-5-azaspiro[2.4]heptane-7-carboxamide]",18
5,"N#Cc1ccc(N2CC(C(=O)NCC3CNCCO3)C3(CC3)C2)c2nccnc12 (stereo not shown) [Example 13, 5-(8-Cyanoquinoxalin-5-yl)-N-(morpholin-2-ylmethyl)-5-azaspiro[2.4]heptane-7-carboxamide]",18
6,"O=C(NC1CC2CNCC(C2)C1)C1CN(c2ccc(C(F)(F)F)c3nccnc23)CC12CC2 (stereo not shown) [Example 15, N-(3-azabicyclo[3.3.1]nonan-7-yl)-5-[8-(trifluoromethyl)quinoxalin-5-yl]-5-azaspiro[2.4]heptane-7-carboxamide]",21
7,"C[C@H]1CN(c2ccc(C#N)c3ncccc23)C[C@@H]1C(=O)NC1CCN(C)CC1 [Example 16, (3R,4R)-1-(8-cyano-5-quinolyl)-4-methyl-N-(1-methyl-4-piperidyl)pyrrolidine-3-carboxamide]",22
8,"CN1CCC(NC(=O)C2CN(c3ccc(C#N)c4ncccc34)CC2C(F)(F)F)CC1 (stereo not shown) [Example 18, 1-(8-Cyano-5-quinolyl)-N-(1-methyl-4-piperidyl)-4-(trifluoromethyl)pyrrolidine-3-carboxamide]",23
9,"O=C(NC1CC2CCC(C1)N2)C1CN(c2ccc(C(F)(F)F)c3nccnc23)CC12CC2 (stereo not shown) [Example 23, N-(8-azabicyclo[3.2.1]octan-3-yl)-5-[8-(trifluoromethyl)quinoxalin-5-yl]-5-azaspiro[2.4]heptane-7-carboxamide]",28
10,"C[C@H]1CN(c2ccc([N+](=O)[O-])c3ncccc23)C[C@@H]1C(=O)NC1CCN(C)CC1 [Example 27, (3R,4R)-4-Methyl-N-(1-methyl-4-piperidyl)-1-(8-nitro-5-quinolyl)pyrrolidine-3-carboxamide]",38
11,"NC1CC(CNC(=O)C2CN(c3ccc(C(F)(F)F)c4nccnc34)CC23CC3)C1 (stereo not shown) [Example 31, N-[(3-aminocyclobutyl)methyl]-5-[8-(trifluoromethyl)quinoxalin-5-yl]-5-azaspiro[2.4]heptane-7-carboxamide]",41
12,"O=C(NC1CC2(CCNCC2)C1)C1CN(c2ccc(C(F)(F)F)c3nccnc23)CC12CC2 (stereo not shown) [Example 34, N-(7-azaspiro[3.5]nonan-2-yl)-5-[8-(trifluoromethyl)quinoxalin-5-yl]-5-azaspiro[2.4]heptane-7-carboxamide]",46
13,"N[C@@H]1C[C@H](NC(=O)C2CN(c3ccc(C(F)(F)F)c4nccnc34)CC23CC3)[C@@H]2C[C@@H]21 (stereo partly drawn) [Example 36, N-[(1R,2S,4R,5S)-4-amino-2-bicyclo[3.1.0]hexanyl]-5-[8-(trifluoromethyl)quinoxalin-5-yl]-5-azaspiro[2.4]heptane-7-carboxamide]",57

# Continued, values first:
row,IC50 [nM],Structure (SMILES)
1,13,"CN1CCC(NC(=O)C2CN(c3ccc(C(F)(F)F)c4nccnc34)CC23CC3)CC1 (stereo not shown) [Example 11, N-(1-methyl-4-piperidyl)-5-[8-(trifluoromethyl)quinoxalin-5-yl]-5-azaspiro[2.4]heptane-7-carboxamide]"
2,25,"CN1CC(NC(=O)C2CN(c3ccc(C(F)(F)F)c4nccnc34)CC23CC3)C2(CC2)C1 (stereo not shown) [Example 20, N-(5-methyl-5-azaspiro[2.4]heptan-7-yl)-5-[8-(trifluoromethyl)quinoxalin-5-yl]-5-azaspiro[2.4]heptane-7-carboxamide]"
3,28,"O=C(NC1CC2CNCC2C1)C1CN(c2ccc(C(F)(F)F)c3nccnc23)CC12CC2 (stereo not shown) [Example 21, N-(1,2,3,3a,4,5,6,6a-octahydrocyclopenta[c]pyrrol-5-yl)-5-[8-(trifluoromethyl)quinoxalin-5-yl]-5-azaspiro[2.4]heptane-7-carboxamide]"
4,28,"NC1CC2(C1)CC(NC(=O)C1CN(c3ccc(C(F)(F)F)c4nccnc34)CC13CC3)C2 (stereo not shown) [Example 22, N-(6-aminospiro[3.3]heptan-2-yl)-5-[8-(trifluoromethyl)quinoxalin-5-yl]-5-azaspiro[2.4]heptane-7-carboxamide]"
5,29,"N[C@H]1CC[C@H](NC(=O)C2CN(c3ccc(C(F)(F)F)c4nccnc34)CC23CC3)CC1 (stereo partly shown) [Example 24, N-(4-aminocyclohexyl)-5-[8-(trifluoromethyl)quinoxalin-5-yl]-5-azaspiro[2.4]heptane-7-carboxamide]"
6,33,"C[C@@H]1CN(c2ccc(C(F)(F)F)c3nccnc23)C[C@H]1C(=O)NC1CCN(C)CC1 [Example 25, (3S,4S)-4-Methyl-N-(1-methyl-4-piperidyl)-1-[8-(trifluoromethyl)quinoxalin-5-yl]pyrrolidine-3-carboxamide]"
7,36,"CN(C)CC1CC(NC(=O)C2CN(c3ccc(C(F)(F)F)c4nccnc34)CC23CC3)C1 (stereo not shown) [Example 26, N-[3-[(dimethylamino)methyl]cyclobutyl]-5-[8-(trifluoromethyl)quinoxalin-5-yl]-5-azaspiro[2.4]heptane-7-carboxamide]"
8,45,"Cc1ccc(N2C[C@H](C(=O)NC3CCN(C)CC3)[C@@H](C)C2)c2nccnc12 [Example 33, (3R,4R)-4-Methyl-N-(1-methyl-4-piperidyl)-1-(8-methylquinoxalin-5-yl)pyrrolidine-3-carboxamide]"
9,55,"N#Cc1ccc(N2C[C@H](C(=O)NC3CCN(C4CCNCC4)CC3)[C@@H](C(F)(F)F)C2)c2nccnc12 [Example 35, (3R,4R)-1-(8-Cyanoquinoxalin-5-yl)-N-[1-(4-piperidyl)-4-piperidyl]-4-(trifluoromethyl)pyrrolidine-3-carboxamide]"
10,59,"NC1CC(NC(=O)C2CN(c3ccc(C(F)(F)F)c4nccnc34)CC23CC3)C1 (stereo not shown) [Example 38, N-(3-Aminocyclobutyl)-5-[8-(trifluoromethyl)quinoxalin-5-yl]-5-azaspiro[2.4]heptane-7-carboxamide]"
11,74,"N[C@H]1CC[C@@H](NC(=O)C2CN(c3ccc(C(F)(F)F)c4nccnc34)CC23CC3)CC1 (stereo partly shown) [Example 39, N-(4-Aminocyclohexyl)-5-[8-(trifluoromethyl)quinoxalin-5-yl]-5-azaspiro[2.4]heptane-7-carboxamide]"
12,84,"C[C@H]1CN(c2ccc(C#N)n3nccc23)C[C@@H]1C(=O)NC1CCN(C)CC1 [Example 44, (3R,4R)-1-(7-cyanopyrazolo[1,5-a]pyridin-4-yl)-4-methyl-N-(1-methyl-4 piperidyl)pyrrolidine-3-carboxamide]"
